The values that follow come from article PMC7646544, “Scaffold hopping and optimisation of 3’,4’-dihydroxyphenyl- containing thienopyrimidinones: synthesis of quinazolinone derivatives as novel allosteric inhibitors of HIV-1 reverse transcriptase-associated ribonuclease H” (Journal of Enzyme Inhibition and Medicinal Chemistry, 2020).

Series [1] addresses T1, HIV-1 IN in the presence of LEDGF/p75 (Human immunodeficiency virus type 1 group M subtype B, UniProt P04585).
T1 construct: made in house
As to the kind of experiment: HTRF IN LEDGF/p75-dependent assay. The series is classed as biochemical. On the procedure: The IN LEDGF/p75-dependent assay measures inhibition of IN activity in the presence of LEDGF/p75 protein[35–37]. Briefly, 50 nM IN was pre-incubated with increasing concentration of compounds for 1 h at room temperature in reaction buffer containing 20 mM HEPES pH 7.5, 1 mM DTT, 1% Glycerol, 20 mM MgCl2, 0.05% Brij-35 and 0.1 mg/ml BSA. To this mixture, 9 nM DNA donor substrate (5′-[…]-Biotin-3′ annealed with 5′-[…]-Biotin3’) and 50 nM DNA acceptor substrate (5′-Cy5-[…]-3′ annealed with 5′-Cy5- […]-3′) and 50 nM LEDGF/p75 were added and incubated at 37 °C for 90 min.
On the technique in general: In TR-FRET formats the signal depends on donor and acceptor labels being close together.

The test system of series [2] is HIV-1RF isolate in CEM-SS cells. As to the kind of experiment: Antiviral activity, XTT-based cell viability assay. The note with it: for selectivity index (SI): CC50/EC50, CEM-SS cells; for EC50: Human immunodeficiency virus 1, HIV-1RF, CEM-SS cells, XTT. As to the method: (§1) Antiviral activity of selected thienopyrimidinones was determined via the 2,3-bis[2-methoxy-4-nitro-5-sulfophenyl]-5-[(phenylamino)carbonyl]-2H tetrazolium hydroxide (XTT)-based cell viability assay of Weislow et al.[45], using the HIV-1RF isolate and human T-cell line CEM-SS.

Series [3] in a line: Cytotoxicity in XTT-based cell viability assay. The conditions noted are these: human, CEM-SS T cells. As to the method:
as §1
On the technique in general: Tetrazolium assays rely on reduction of a dye to a coloured formazan, in cell work by metabolically active cells.

Series [4] deals with T2, wt HIV-1 RT-associated RNase H (Human immunodeficiency virus type 1 group M subtype B, UniProt P04585).
T2 construct: dynamics at the p66/p51 HIV-1 RT-RNase H dimer interface; made in house
As to the kind of experiment: RNase H inhibitor analysis, wild type RT (fluorescent RNA/DNA hybrid). The series is classed as biochemical. The conditions noted are these: for IC50: wild type RT. On the procedure:
All assays were performed in triplicate.

For series [5], the target named is T3, p66/p51C280A mutant HIV-1 RNase H (Human immunodeficiency virus type 1 group M subtype B, UniProt P04585, C867A). As to the kind of experiment: RNase H inhibitor analysis, p66/p51 C280A mutant RT.
Experimental: IC50 values were determined as previously reported[31] using an 18-nt 3′-fluorescein-labeled RNA annealed to a complementary 18-nt 5′-dabcyl-labeled DNA. To a 96-well plate was added 1 μL of each inhibitor (in DMSO), followed by 10 μL of the appropriate RT (15−80 ng/mL) in reaction buffer. […] Wells containing only DMSO was used as negative control. […] IC50 values were determined using Prism5 (GraphPad Software, San Diego, CA). All assays were performed in triplicate.
A further series concerns the target T4, HIV-1 RT-associated RDDP (Human immunodeficiency virus type 1 group M subtype B, UniProt P04585).
T4 construct: dynamics at the p66/p51 HIV-1 RT-RNase H dimer interface; made in house
Briefly: HIV-1 RNA-dependent DNA polymerase activity determination. The series is classed as biochemical. The conditions noted are these: wt RT, poly(A)-oligo(dT). As to the method:
HIV-1 RT-associated RDDP activity was measured as described[17]^,[38]. Briefly, in 25 μL volume containing 60 mM Tris-HCl pH 8.1, 8 mM MgCl2, 60 mM KCl, 13 mM DTT, poly(A)-oligo(dT), 100 μM dTTP, and 6 ng wt RT. After enzyme addition, the reaction mixture was incubated for 30 min at 37 °C and stopped by addition of EDTA. […] All assays were performed in triplicate.

Series [6] addresses T3, p66/p51C280A mutant HIV-1 RNase H. On the set-up: made in house; method as in PMID 24261890. The note with it: p66/p51 C280A mutant RT; cited from earlier work.
In series [7] the target is T5, HIV-1 RT-associated RNase H (Human immunodeficiency virus type 1 group M subtype B, UniProt P04585).
T5 construct: dynamics at the p66/p51 HIV-1 RT-RNase H dimer interface; made in house
As to the kind of experiment: Yonetani-Theorell analysis on RNase H activity. It counts as biochemical. The conditions noted are these: combination of compound 11 and compound 24. On the procedure: Yonetani–Theorell analysis[43] was performed as reported. Briefly, HIV RT-associated RNase H activity was measured in 100 µL reaction volume containing 50 mM Tris–HCl buffer pH 7.8, 6 mM MgCl2, 1 mM dithiothreitol (DTT), 80 mM KCl, 0.25 µM hybrid RNA/DNA 5′-[…]-Fluorescin-3′ (HPLC, dry, QC: Mass Check) (available from Metabion) 5′-Dabcyl-[…]-3′(HPLC, dry, QC: Mass Check), and different amount of enzymes according to a linear range of dose-response curve: 20 ng of WT RT, and increasing concentrations of inhibitor (diluted) in water and incubated for 1 h at 37 °C, at 200 rpm. Products were measured with a multilabel counter plate reader Victor 3 (Perkin Elmer model 1420-051) equipped with filters for 490/528 nm (excitation/emission wavelength). A calibration curve for the fluorescein signal was generated in parallel, calculating pmols of product generated by the reaction. The reciprocal of the reaction product was plotted vs. the compound concentration a different condition using the Sigma-Plot software.

Molecules are shown by their SMILES. Like-named read-outs stand apart in the source and are kept apart here. Some results are limits rather than exact numbers.

On to `O=c1[nH]c(-c2ccc(O)c(O)c2)nc2ccc(Cl)cc12` [Compound 10, 2–(3,4-dihydroxyphenyl)-6-chloroquinazolin-4(3H)-one], for which the half-maximal inhibitory concentration (IC50) in series [1] was determined as 3.4 ± 0.6 µM; in series [4], 0.31 ± 0.01 µM; in series [5], 200 ± 10 nM; against HIV-1 RT-associated RDDP it was 30.5 ± 0.4 µM. Moreover, the “selectivity index (SI)” value in series [2] is 4. In series [2], a half-maximal effect (EC50) was put at 5400 nM. In addition, half-maximal cytotoxicity in series [3] (CC50) was put at 22000 nM.
Take `O=c1[nH]c(-c2ccc(O)c(O)c2)nc2ccc(I)cc12` [Compound 8, 2–(3,4-dihydroxyphenyl)-6-iodoquinazolin-4(3H)-one]: the IC50 in series [1] was 3.4 ± 0.83 µM; in series [4] it was 0.15 ± 0.01 µM; in series [5], 120 ± 1 nM; at HIV-1 RT-associated RDDP, 26.7 ± 2.2 µM. In addition, the “selectivity index (SI)” value in series [2] came out at 2. For the same molecule, the EC50 in series [2] was 8300 nM. For the same molecule, the 50% cytotoxic concentration (CC50) in series [3] stood at 17000 nM.
For the molecule `Oc1ccc(-c2ccc3ccccc3n2)cc1O` [Compound 22, 4-(quinolin-2-yl)benzene-1,2-diol], the IC50 was 2.9 ± 0.89 µM in series [4] and 610 ± 220 nM in series [5]. The “fold more potent on C280A mutant RT RNase H than wt RT” value in series [5] (C280A vs wt) was 4 fold.
For `O=c1[nH]c(-c2ccc(O)c(O)c2)nc2c1oc1ccccc12` [Compound 15, 2–(3,4-dihydroxyphenyl)benzofuro[3,2-d]pyrimidin-4(3H)-one], the IC50 was determined as 5.35 ± 0.35 µM in series [1], 0.64 ± 0.03 µM in series [4], 390 ± 10 nM in series [5] and 25.3 ± 6.3 µM on HIV-1 RT-associated RDDP.
In turn, `Nc1ccc(-c2nc3ccccc3c(=O)[nH]2)cc1N` [Compound 20, 2–(3,4-diaminophenyl)quinazolin-4(3H)-one] registered an IC50 in series [4] of more than 50 µM.
For the molecule `Oc1ccc(-c2ccc3ccccc3c2)cc1O` [Compound 23, 4-(naphthalen-2-yl)benzene-1,2-diol], in series [2], the “selectivity index (SI)” value was found to be 2 and the EC50 worked out at 14000 nM. In addition, in series [3], half-maximal cytotoxicity (CC50) was put at 26000 nM. Further, in series [4], the midpoint of inhibition, the IC50, lay at 0.71 ± 0.03 µM. For the same molecule, the “fold more potent than the reported compound 17” value in series [4] (wt RT RNase H) came out at 5 fold. For the same molecule, in series [5], the IC50 was found to be 1200 ± 40 nM.
With `COc1cc2nc(-c3ccc(O)c(O)c3)[nH]c(=O)c2cc1OC` [Compound 5, 2–(3,4-dihydroxyphenyl)-6,7-dimethoxyquinazolin-4(3H)-one], the IC50 in series [1] is 6.5 ± 2.5 µM; in series [4] it was 0.73 ± 0.02 µM; in series [5] it was 330 ± 3 nM; at HIV-1 RT-associated RDDP, more than 100 µM.
For the molecule `O=c1[nH]c(-c2ccc(O)c(O)c2)nc2cc3ccccc3cc12` [Compound 7, 2–(3,4-dihydroxyphenyl)benzo[g]quinazolin-4(3H)-one], the half-maximal inhibitory concentration (IC50) in series [1] was 31.5 ± 6.5 µM; in series [4], 1.1 ± 0.04 µM; in series [5] it was 510 ± 50 nM; against HIV-1 RT-associated RDDP, 23.4 ± 0.5 µM.
Take `Cc1sc2nc(-c3ccc(O)c(O)c3)[nH]c(=O)c2c1C` [Compound 1, 2-(3,4-dihydroxyphenyl)-5,6-dimethylthieno[2,3-d]pyrimidin-4(3H)-one, reference compound]: the IC50 in series [6] was 320 nM.
As for `O=c1[nH]c(-c2ccc(O)c(O)c2)nc2ccc(-c3ccccc3)cc12` [Compound 6, 2–(3,4-dihydroxyphenyl)-6-phenylquinazolin-4(3H)-one], the IC50 in series [1] stood at 89 ± 10 µM; in series [4], 0.37 ± 0.01 µM; in series [5] it was 290 ± 6 nM; at HIV-1 RT-associated RDDP, 63 ± 11 µM.
For `O=c1[nH]c(-c2ccc(O)c(O)c2)nc2cc(Cl)ccc12` [Compound 11, 2–(3,4-dihydroxyphenyl)-7-chloroquinazolin-4(3H)-one], the IC50 was 7.2 ± 0.7 µM in series [1], 0.43 ± 0.01 µM in series [4], 660 ± 50 nM in series [5] and more than 100 µM against HIV-1 RT-associated RDDP. Besides, the “selectivity index (SI)” value in series [2] is listed as 3. The EC50 in series [2] came to 1800 nM. Besides, the “interaction constant α” value in series [7] is on record as “greater than 1”. In addition, the “simultaneous inhibition of RNase H (Yonetani-Theorell)” value in series [7] is listed as “not kinetically mutually exclusive”. Further, in series [3], the CC50 is 6000 nM.
For `O=c1[nH]c(-c2ccc(O)c(O)c2)nc2ccc([N+](=O)[O-])cc12` [Compound 13, 2–(3,4-dihydroxyphenyl)-6-nitroquinazolin-4(3H)-one], the IC50 in series [1] is 23.2 ± 0.8 µM; in series [4] it was 0.31 ± 0.01 µM; in series [5] it was 170 ± 4 nM; on HIV-1 RT-associated RDDP it was 99 ± 1 µM.
As to `O=C1NC(c2ccc(O)c(O)c2)Nc2ccc(Cl)cc21` (centres unmarked) [Compound 14, 6-chloro-2–(3,4-dihydroxyphenyl)-2,3-dihydroquinazolin-4(1H)-one], the IC50 in series [1] was more than 100 µM; in series [4], 0.56 ± 0.25 µM; in series [5], 400 ± 30 nM; on HIV-1 RT-associated RDDP, more than 100 µM.
In the case of `O=c1[nH]c(-c2ccc(O)c(O)c2)nc2ncccc12` [Compound 16, 2–(3,4-dihydroxyphenyl)pyrido[2,3-d]pyrimidin-4(3H)-one], the IC50 was 0.69 ± 0.19 µM in series [1], 2.4 ± 1.6 µM in series [4], 2000 ± 100 nM in series [5] and 38 ± 4 µM against HIV-1 RT-associated RDDP.
The molecule `O=c1[nH]c(-c2ccc([N+](=O)[O-])c(O)c2)nc2ccccc12` [Compound 21, 2–(3-hydroxy-4-nitrophenyl)quinazolin-4(3H)-one] came in with an IC50 in series [4] of more than 50 µM.
Turning to `O=c1[nH]c(-c2ccc(O)c(O)c2)nc2ccc(F)cc12` [Compound 12, 2–(3,4-dihydroxyphenyl)-6-fluoroquinazolin-4(3H)-one], the IC50 was 6.61 ± 0.93 µM in series [1], 0.52 ± 0.06 µM in series [4], 840 ± 30 nM in series [5] and more than 100 µM against HIV-1 RT-associated RDDP.
Regarding `Cc1ccc2c(=O)[nH]c(-c3ccc(O)c(O)c3)nc2c1` [Compound 3, 2–(3,4-dihydroxyphenyl)-7-methylquinazolin-4(3H)-one], the IC50 in series [1] turned out to be 2.35 ± 0.44 µM; in series [4] it was 0.5 ± 0.02 µM; in series [5], 230 ± 20 nM; against HIV-1 RT-associated RDDP, 60 ± 9 µM. Besides, the “selectivity index (SI)” value in series [2] worked out at 2. Besides, the EC50 in series [2] was determined as 12000 nM. Half-maximal cytotoxicity in series [3] (CC50) was put at 25000 nM.
`O=c1[nH]c(-c2ccc(O)c(O)c2)nc2ccc(Br)cc12` [Compound 9, 2–(3,4-dihydroxyphenyl)-6-bromoquinazolin-4(3H)-one]: the IC50 amounted to 7 ± 2 µM in series [1], 0.45 ± 0.008 µM in series [4], 400 ± 10 nM in series [5] and 46 ± 3 µM against HIV-1 RT-associated RDDP.
In the case of `O=C(O)c1ccc(-c2nc3ccccc3c(=O)[nH]2)cc1O` [Compound 18, 2-hydroxy-4-(4-oxo-3,4-dihydroquinazolin-2-yl)benzoic acid], in series [4], the IC50 was 13.6 ± 0.3 µM.
For the molecule `O=c1[nH]c(-c2ccc(O)c(O)c2)nc2sc3c(c12)CCCCC3` [Compound 24, 2–(3,4-dihydroxyphenyl)-3,5,6,7,8,9-hexahydro-4H-cyclohepta[4,5]thieno[2,3-d]pyrimidin-4-one, reference compound], in series [7], the “interaction constant α” value was “greater than 1” and the “simultaneous inhibition of RNase H (Yonetani-Theorell)” value is recorded as “not kinetically mutually exclusive”.
On to `COc1ccc2nc(-c3ccc(O)c(O)c3)[nH]c(=O)c2c1` [Compound 4, 2–(3,4-dihydroxyphenyl)-6-methoxyquinazolin-4(3H)-one], for which the IC50 in series [1] was found to be 8.5 ± 0.3 µM; in series [4] it was 0.57 ± 0.02 µM; in series [5], 410 ± 10 nM; at HIV-1 RT-associated RDDP it was 57 ± 3 µM.
Molecule `Nc1ccc(-c2nc3ccccc3c(=O)[nH]2)cc1O` [Compound 19, 2-(4-amino-3-hydroxyphenyl)quinazolin-4(3H)-one] returned an IC50 in series [4] of more than 50 µM.

For orientation: IC50 means the concentration at which inhibition is half-maximal. By EC50 is commonly meant the concentration needed to bring the measured effect to its halfway point. A lower EC50 goes with higher potency in that assay. As usually defined, the CC50 is the concentration giving 50% cytotoxicity.
